From patent US7846697B2, “Method of producing a low molecular weight organic compound in a cell” (BLMaps, priority 2003, dated 2010)

Tests used:
microorganisms = conditions: Pfeifer et al, 1984; cited from earlier work
[1] = test system: E. coli strain JM109 transformants; assay: Toxicity of vanillin with IPTG-induced expression of UGT85B1 or AS, growth on plates; format: cell-based; conditions: JM109 [pJH410], IPTG induction No; note: key: −: No growth; +: weak growth; ++: good growth
[2] = test system: E. coli strain KO1418 transformants; assay: as above; format: cell-based
Method: (§1) The E. coli strains TOP10, JM109, and KO1418 were all transformed with the constructed plasmids pJH401, pJH402, pJH411 and pJH412, and pKK223-3 as control, employing standard transformation protocols. Transformants were selected for ampicilin resistance, and two transformants of each E. coli strain with each plasmid were kept for expression experiments. The E. coli transformants were inoculated from plate cultures into 2 ml liquid growth medium (LB medium containing ampicilin at 100 μg/ml), and allowed to grow for 20 hours at 37° C. The precultures were diluted 100 times 10^4 times and 10^6 times in growth medium, and 4 μl droplets of these cell suspensions were applied to the surface of Petri dishes containing solid LB-ampicilin medium containing varying concentrations of vanillin (based on the STV determinations described above), and without or with (to induce gene expression) 1 mM isopropyl thiogalactoside (IPTG). The plates were incubated at 37° C. for 24 hours, after which growth on the various concentrations of vanillin was monitored and recorded.

[3] = test system: E. coli strain JM109 transformants; assay: as above; format: cell-based
Method: as §1

[4] = test system: E. coli strain JM109 transformants; assay: Toxicity of vanillin with constitutive expression of UGT85B1 or AS, growth on plates; format: cell-based
Text: For experimentation with constitutive expression of UGT85B1 and AS, the E. coli strains JM109, and K01418 were transformed with the constructed plasmids pJH 430, pJH431, pJH432, pJH433, pJH434, pJH435, pJH436, pJH437, pJH438, pJH439, pJH440, and pJH441, and pKOL30 as control, employing standard transformation protocols. Transformants were selected for ampicilin resistance, and two transformants of each E. coli strain with each plasmid were kept for expression experiments. The E. coli transformants were inoculated from plate cultures into 2 ml liquid growth medium (LB medium containing ampicilin at 100 μg/ml), and allowed to grow for 20 hours at 37° C. The precultures were diluted 100 times 10^4 times and 10^6 times in growth medium, and 4 μl droplets of these cell suspensions were applied to the surface of Petri dishes containing solid LB-ampicilin medium containing varying concentrations of vanillin (based on the STV determinations described above). The plates were incubated at 37° C. for 24 hours, after which growth on the various concentrations of vanillin was monitored and recorded.

E. coli strain JM109 = assay: Vanillin sensitivity (STV) on solid LB growth medium; format: cell-based; conditions: no growth at 1/10000 dilution, growth at 1/100 severely inhibited, 24 hours
Method: (§2) The three different E. coli strains TOP10, JM109, and KO1418 were grown for 18 hours in the appropriate media, after which serial dilutions in growth medium (dilution factors 1, 1/100, 1/10000 and 1/1000000) were made. Droplets of these cell suspensions were applied to Petri dishes containing solid LB growth medium with various concentrations of vanillin, and the plates were incubated at the appropriate growth temperature for 24 hours (E. coli), after which they were photographed. […] This number constituted the STV (Sensitivity To Vanillin) level. The STV numbers for the different microorganisms studied can be seen in Table 9.1.

E. coli strain KO1418 = assay: as above; format: cell-based; conditions: no growth at 1/10000 dilution, growth at 1/100 severely inhibited, 24 hours
Method: as §2

E. coli strain TOP10 = assay: as above; format: cell-based; conditions: no growth at 1/10000 dilution, growth at 1/100 severely inhibited, 24 hours
Method: as §2

[5] = test system: E. coli strain KO1418 transformants; assay: Toxicity of vanillin with IPTG-induced expression of UGT85B1 or AS, growth on plates; format: cell-based; design: key: −: No growth; +: weak growth; ++: good growth; conditions: KO1418 [pJH410]

COc1cc(C=O)ccc1O [Vanillin, vanillin]
5 g/L: concentration in the medium at which it acts as a strong growth inhibitor (microorganisms)
+: growth ([2]; KO1418 [pJH402], 0.16% vanillin, IPTG induction No) | growth ([3]; JM109 [pJH402], 0.16% vanillin, IPTG induction No) | growth ([3]; JM109 [pJH410], 0.16% vanillin, IPTG induction Yes) | growth ([4]; JM109 [pJH432], 0.16% vanillin) | growth ([4]; JM109 [pJH433], 0.16% vanillin)
0.12 % (w/v): STV (Sensitivity To Vanillin) level (E. coli strain TOP10)
0.14 % (w/v): STV (Sensitivity To Vanillin) level (E. coli strain JM109)
−: growth ([1]; 0.2% vanillin) | growth ([2]; KO1418 [pJH401], 0.16% vanillin, IPTG induction No) | growth ([2]; KO1418 [pJH401], 0.2% vanillin, IPTG induction No) | growth ([2]; KO1418 [pJH401], 0.2% vanillin, IPTG induction Yes) | growth ([2]; KO1418 [pJH402], 0.2% vanillin, IPTG induction No) | growth ([2]; KO1418 [pJH402], 0.2% vanillin, IPTG induction Yes) | growth ([2]; KO1418 [pJH410], 0.2% vanillin, IPTG induction No) | growth ([2]; KO1418 [pKK223-3], 0.16% vanillin, IPTG induction No) | growth ([2]; KO1418 [pKK223-3], 0.2% vanillin, IPTG induction No) | growth ([2]; KO1418 [pKK223-3], 0.2% vanillin, IPTG induction Yes) | growth ([3]; JM109 [pJH401], 0.16% vanillin, IPTG induction No) | growth ([3]; JM109 [pJH401], 0.16% vanillin, IPTG induction Yes) | growth ([3]; JM109 [pJH401], 0.2% vanillin, IPTG induction No) | growth ([3]; JM109 [pJH401], 0.2% vanillin, IPTG induction Yes) | growth ([3]; JM109 [pJH402], 0.2% vanillin, IPTG induction No) | growth ([3]; JM109 [pJH402], 0.2% vanillin, IPTG induction Yes) | growth ([3]; JM109 [pJH410], 0.2% vanillin, IPTG induction Yes) | growth ([3]; JM109 [pKK223-3], 0.16% vanillin, IPTG induction No) | growth ([3]; JM109 [pKK223-3], 0.16% vanillin, IPTG induction Yes) | growth ([3]; JM109 [pKK223-3], 0.2% vanillin, IPTG induction No) | growth ([3]; JM109 [pKK223-3], 0.2% vanillin, IPTG induction Yes) | growth ([4]; JM109 [pKOL30], 0.16% vanillin)
++: growth ([1]; 0.08% vanillin) | growth ([2]; KO1418 [pJH401], 0.08% vanillin, IPTG induction No) | growth ([2]; KO1418 [pJH401], 0.08% vanillin, IPTG induction Yes) | growth ([2]; KO1418 [pJH401], 0.12% vanillin, IPTG induction No) | growth ([2]; KO1418 [pJH401], 0.12% vanillin, IPTG induction Yes) | growth ([2]; KO1418 [pJH401], 0.16% vanillin, IPTG induction Yes) | growth ([2]; KO1418 [pJH402], 0.08% vanillin, IPTG induction No) | growth ([2]; KO1418 [pJH402], 0.08% vanillin, IPTG induction Yes) | growth ([2]; KO1418 [pJH402], 0.12% vanillin, IPTG induction No) | growth ([2]; KO1418 [pJH402], 0.12% vanillin, IPTG induction Yes) | growth ([2]; KO1418 [pJH402], 0.16% vanillin, IPTG induction Yes) | growth ([2]; KO1418 [pJH410], 0.08% vanillin, IPTG induction No) | growth ([2]; KO1418 [pJH410], 0.12% vanillin, IPTG induction Yes) | growth ([2]; KO1418 [pJH410], 0.16% vanillin, IPTG induction No) | growth ([2]; KO1418 [pJH410], 0.16% vanillin, IPTG induction Yes) | growth ([2]; KO1418 [pKK223-3], 0.08% vanillin, IPTG induction No) | growth ([2]; KO1418 [pKK223-3], 0.08% vanillin, IPTG induction Yes) | growth ([2]; KO1418 [pKK223-3], 0.12% vanillin, IPTG induction No) | growth ([2]; KO1418 [pKK223-3], 0.12% vanillin, IPTG induction Yes) | growth ([2]; KO1418 [pKK223-3], 0.16% vanillin, IPTG induction Yes) | growth ([3]; JM109 [pJH401], 0.08% vanillin, IPTG induction No) | growth ([3]; JM109 [pJH401], 0.08% vanillin, IPTG induction Yes) | growth ([3]; JM109 [pJH401], 0.12% vanillin, IPTG induction No) | growth ([3]; JM109 [pJH401], 0.12% vanillin, IPTG induction Yes) | growth ([3]; JM109 [pJH402], 0.08% vanillin, IPTG induction No) | growth ([3]; JM109 [pJH402], 0.08% vanillin, IPTG induction Yes) | growth ([3]; JM109 [pJH402], 0.12% vanillin, IPTG induction No) | growth ([3]; JM109 [pJH402], 0.12% vanillin, IPTG induction Yes) | growth ([3]; JM109 [pJH402], 0.16% vanillin, IPTG induction Yes) | growth ([3]; JM109 [pJH410], 0.08% vanillin, IPTG induction Yes) | growth ([3]; JM109 [pJH410], 0.12% vanillin, IPTG induction No) | growth ([3]; JM109 [pJH410], 0.12% vanillin, IPTG induction Yes) | growth ([3]; JM109 [pJH410], 0.16% vanillin, IPTG induction No) | growth ([3]; JM109 [pKK223-3], 0.08% vanillin, IPTG induction No) | growth ([3]; JM109 [pKK223-3], 0.08% vanillin, IPTG induction Yes) | growth ([3]; JM109 [pKK223-3], 0.12% vanillin, IPTG induction No) | growth ([3]; JM109 [pKK223-3], 0.12% vanillin, IPTG induction Yes) | growth ([4]; JM109 [pJH430], 0.16% vanillin) | growth ([4]; JM109 [pJH431], 0.16% vanillin) | growth ([4]; JM109 [pKOL30], 0.12% vanillin) | growth ([5]; 0.08% vanillin, IPTG induction Yes) | growth ([5]; 0.12% vanillin, IPTG induction No) | growth ([5]; 0.2% vanillin, IPTG induction Yes)
0.18 % (w/v): STV (Sensitivity To Vanillin) level (E. coli strain KO1418)
+++: growth ([4]; JM109 [pJH430], 0.08% vanillin) | growth ([4]; JM109 [pJH430], 0.12% vanillin) | growth ([4]; JM109 [pJH431], 0.08% vanillin) | growth ([4]; JM109 [pJH431], 0.12% vanillin) | growth ([4]; JM109 [pJH432], 0.08% vanillin) | growth ([4]; JM109 [pJH432], 0.12% vanillin) | growth ([4]; JM109 [pJH433], 0.08% vanillin) | growth ([4]; JM109 [pJH433], 0.12% vanillin) | growth ([4]; JM109 [pKOL30], 0.08% vanillin)
